Laboratory results reported in US20160101194A1, “SMART® Medication Adherence Formulation, Method, Device and System for Topical, Vaginal or Rectal Routes of Administration” (University of Florida Research Foundation, Incorporated, priority 2013, published 2016).

Experiments:
[1] = Breath kinetics of exhaled d6-acetone after oral ingestion of d8-isopropanol; assay type: in vivo; conditions: post-ingestion
Procedure: Either 100 mg d8-isopropanol or 20 mg d8 isopropanol was delivered orally. For oral dosing, 100 or 20 mg of neat d8-isopropanol were placed in a size 4 licap and the licap was swallowed along with 60-100 mL of water. Following administration of d8-isopropanol, exhaled breath was monitored in real time for the presence of d6-acetone and d7-isopropanol using the Orbitrap LCMS.
(§1) Following application or ingestion, d6-acetone and d7-isopropanol levels were monitored in exhaled breath samples using the LTQ-LCMS. Single full breath samples were administered directly into the modified ESI source at 5 min intervals for ˜4 hours. The ESI source was operated in positive ion mode.

[2] = Breath kinetics of exhaled d6-acetone after topical application of d8-isopropanol in carbomer gel; assay type: in vivo; conditions: 240 mg transdermal in carbomer gel, post application; maximum still not achieved
Procedure: 240 mg of d8-isopropanol was mixed with 3 mL of a carbomer-based aloe gel. This gel was applied to an approximately 20 cm^2 area of the inner left forearm and covered with a Tagaderm occlusive dressing. To further reduce the permeability of the dressing, the transparent section was covered with a small section of teldar polymer prior to use.
as §1

[3] = after oral dosing
Procedure: Data shown are mean±SD. *, P<0.05 for a given time point compared to time point 0 min. The arrow denotes time of capsule ingestion. Concentrations less than the level of 1.0 parts-per-billion (ppb) are noted as “<LOD”.

[4] = 40 mg rectal in 3 mL HEC gel
Procedure: The entire contents of the syringe were applied rectally as a bolus. Breath acetone and 2-butanone levels were monitored throughout the experiment by delivering single full breath samples directly into the modified ESI source. Two baseline breath samples were taken immediately prior to application and then at 1-3 min intervals thereafter. The ESI source was operated in positive ion mode. A 0.2% NH4OH:water mobile phase was introduced into the source at a flow rate of 0.1 mL/min during sampling to produce ammonium adducts of the analytes of interest.

[5] = after vaginal administration with gel; cited from earlier work

Compound: [2H]OC([2H])(C([2H])([2H])[2H])C([2H])([2H])[2H] [d8-IPA, d8-isopropanol]
- time by which D6-acetone levels in exhaled breath began to level out ([1]; 20 mg oral): ≤ 15 min
- time by which D6-acetone levels in exhaled breath began to level out ([1]; 100 mg oral): ≤ 15 min
- time to maximum concentration of d-6 acetone in exhaled breath [2]: > 200 min

Compound: CCC(C)O (stereo not shown) [2-butanol]
- 2-butanone concentration in breath [3]: 500-1,000 ppb
- time to appearance of 2-butanone in breath [4]: 2 to 3 min

Compound: CCCC(C)OC(C)=O (stereo not shown) [2-pentyl acetate]
- parent ester and metabolites observed in breath [5]: observed in breath

Compound: CCC(C)OC(C)=O (stereo not shown) [2-butyl acetate]
- parent ester and metabolites observed in breath [5]: observed in breath
